Consider seven compounds from patent US20060264410A1, “19,26,27-trinor-1alpha,25-dihydroxyvitamin D3 compounds” (Wisconsin Alumni Research Foundation, priority 2005, published 2006).

“Also recorded” adds a separate entry of the source.

The conditions of test [1]: prior art; b9 values compared to 1α,25-dihydroxyvitamin D3; cited from earlier work.
Test [2] addresses T1, vitamin D receptor (Homo sapiens, UniProt P11473).
T1 sequence (P11473 1-427): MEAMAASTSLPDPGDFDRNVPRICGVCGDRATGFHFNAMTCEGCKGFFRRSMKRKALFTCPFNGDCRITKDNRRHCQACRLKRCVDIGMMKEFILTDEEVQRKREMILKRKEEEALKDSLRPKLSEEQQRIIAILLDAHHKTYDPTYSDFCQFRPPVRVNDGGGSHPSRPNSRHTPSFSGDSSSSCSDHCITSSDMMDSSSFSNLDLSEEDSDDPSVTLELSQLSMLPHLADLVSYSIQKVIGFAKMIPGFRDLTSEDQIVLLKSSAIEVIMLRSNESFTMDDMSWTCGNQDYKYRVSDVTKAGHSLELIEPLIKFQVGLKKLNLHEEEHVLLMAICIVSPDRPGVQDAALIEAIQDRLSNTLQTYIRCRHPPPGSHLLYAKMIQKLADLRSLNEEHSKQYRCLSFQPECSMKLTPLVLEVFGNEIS
Particulars: from '352, '861 and '622 patents; cited from earlier work.

Test [3] has as its system cell differentiation. Particulars: prior art; cited from earlier work.
Test [4] deals with HL-60 cells. Kind of test: HL-60 differentiation (nitro blue tetrazolium reduction). The test is classed as cell-based, Human. Particulars: FIG. 3. As to the method: The study drugs were dissolved in ethanol and the concentrations determined using UV spectrophotometry. Serial dilutions were prepared so that a range of drug concentrations could be tested without changing the final concentration of ethanol (≦0.2%) present in the cell cultures.
Human promyelocytic leukemia (HL60) cells were grown in RPMI-1640 medium containing 10% fetal bovine serum. The cells were incubated at 37° C. in the presence of 5% CO2.
HL60 cells were plated at 1.2×10^5 cells/mL. Eighteen hours after plating, cells in duplicate were treated with drug. Four days later, the cells were harvested and a nitro blue tetrazolium reduction assay was performed (Collins et al., 1979; J. Exp. Med. 149:969-974). The percentage of differentiated cells was determined by counting a total of 200 cells and recording the number that contained intracellular black-blue formazan deposits. Verification of differentiation to monocytic cells was determined by measuring phagocytic activity (data not shown).

A short description of test [5]: Intestinal calcium transport (everted gut sac method). The class given is in vivo, Sprague-Dawley rats. The note with it: rats, four ip doses; FIGS. 6 and 8. As to the method:
(§1) Male, weanling Sprague-Dawley rats were placed on Diet 11 (Suda et al. J. Nutr. 100:1049, 1970) (0.47% Ca) diet+vitamins AEK for one week followed by Diet 11 (0.02% Ca)+AEK for 3 weeks. The rats were then switched to a diet containing 0.47% Ca for one week followed by two weeks on the diet containing 0.02% Ca. Dose administration began during the last week on 0.02% calcium diet. Four consecutive ip doses were given approximately 24 hours apart. Twenty-four hours after the last dose, blood was collected from the severed neck and the concentration of serum calcium determined as a measure of bone calcium mobilization. The first 10 cm of the intestine was also collected for intestinal calcium transport analysis using the everted gut sac method.

For test [6], the target named is T2, full-length recombinant rat vitamin D receptor (Rattus norvegicus, UniProt P13053).
T2 construct: Full-length recombinant rat receptor was expressed in E. coli BL21(DE3) Codon Plus RIL cells; histidine tag (C); made in house; host or cells: E. coli BL21(DE3) Codon Plus RIL
T2 sequence (P13053 1-423): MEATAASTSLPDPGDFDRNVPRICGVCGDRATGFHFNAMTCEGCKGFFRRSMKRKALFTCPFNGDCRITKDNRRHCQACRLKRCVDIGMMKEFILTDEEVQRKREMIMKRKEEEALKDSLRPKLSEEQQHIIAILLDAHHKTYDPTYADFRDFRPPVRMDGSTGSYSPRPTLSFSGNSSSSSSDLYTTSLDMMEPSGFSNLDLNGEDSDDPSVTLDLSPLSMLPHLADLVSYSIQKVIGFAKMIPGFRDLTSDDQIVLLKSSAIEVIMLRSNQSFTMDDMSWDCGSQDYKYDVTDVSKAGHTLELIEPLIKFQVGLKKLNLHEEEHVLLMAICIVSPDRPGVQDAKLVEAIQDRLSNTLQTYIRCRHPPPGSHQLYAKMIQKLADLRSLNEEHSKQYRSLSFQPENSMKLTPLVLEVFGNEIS
The test can be described thus: Vitamin D receptor binding, competition with [3H]-1,25-(OH)2-D3. The note with it: FIGS. 1 and 2. As for the experimental part:
Full-length recombinant rat receptor was expressed in E. coli BL21(DE3) Codon Plus RIL cells and purified to homogeneity using two different column chromatography systems. The first system was a nickel affinity resin that utilizes the C-terminal histidine tag on this protein. The protein that was eluted from this resin was further purified using ion exchange chromatography (S-Sepharose Fast Flow). Aliquots of the purified protein were quick frozen in liquid nitrogen and stored at −80° C. until use. For use in binding assays, the protein was diluted in TEDK50 (50 mM Tris, 1.5 mM EDTA, pH 7.4, 5 mM DTT, 150 mM KCl) with 0.1% Chaps detergent. The receptor protein and ligand concentration was optimized such that no more than 20% of the added radiolabeled ligand was bound to the receptor.
Unlabeled ligands were dissolved in ethanol and the concentrations determined using UV spectrophotometry (1,25(OH)2D3: molar extinction coefficient=18,200 and λmax=265 nm; Analogs: molar extinction coefficient=42,000 and λmax=252 nm). Radiolabeled ligand (^3H-1,25(OH)2D3, ˜159 Ci/mmol) was added in ethanol at a final concentration of 1 nM.
Radiolabeled and unlabeled ligands were added to 100 mcl of the diluted protein at a final ethanol concentration of ≦10%, mixed and incubated overnight on ice to reach binding equilibrium. The following day, 100 mcl of hydroxylapatite slurry (50%) was added to each tube and mixed at 10-minute intervals for 30 minutes. The hydroxylapaptite was collected by centrifugation and then washed three times with Tris-EDTA buffer (50 mM Tris, 1.5 mM EDTA, pH 7.4) containing 0.5% Titron X-100. After the final wash, the pellets were transferred to scintillation vials containing 4 mL of Biosafe II scintillation cocktail, mixed and placed in a scintillation counter. Total binding was determined from the tubes containing only radiolabeled ligand.

Test [7] can be described thus: Bone calcium mobilization (serum calcium). The test is classed as in vivo, Sprague-Dawley rats. The note with it: rats, four ip doses, even at 7,020 pmol/day; FIGS. 5 and 7. As for the experimental part:
as §1

Test [8] relates to 24-hydroxylase (24Ohase) gene promoter. The test can be described thus: In vitro transcription assay (luciferase reporter in ROS 17/2.8 cells). The class given is cell-based. Particulars: 24Ohase promoter-luciferase, FIG. 4. As for the experimental part:
Transcription activity was measured in ROS 17/2.8 (bone) cells that were stably transfected with a 24-hydroxylase (24Ohase) gene promoter upstream of a luciferase reporter gene (Arbour et al., 1998). Cells were given a range of doses. Sixteen hours after dosing the cells were harvested and luciferase activities were measured using a luminometer. RLU=relative luciferase units.

In the case of “1α-hydroxy-2-methylene-19-nor-(20S)-homopregnacalciferol”, the “calcemic / calcium mobilizing activity” value in test [1] was “little if any calcemic activity”. In addition, the “binding activity to the vitamin D receptor” value (from here on “binding activity”) in test [2] is given as “relatively high binding activity”. The cell differentiation activity result in test [3] is given as “relatively high cell differentiation activity”.
For “1α-hydroxy-2-methylene-19-nor-bishomopregnacalciferol”, in test [1], the “calcemic / calcium mobilizing activity” value is “little if any calcemic activity”. Further, the “binding activity” value in test [2] is listed as “relatively high binding activity”. The cell differentiation activity result in test [3] is “relatively high cell differentiation activity”.
Consider `C[C@H](CCCC(C)(C)O)[C@H]1CC[C@H]2/C(=C/C=C3C[C@@H](O)C[C@H](O)C3)CCC[C@]12C` [1α,25-dihydroxy-19-nor-vitamin D3], for which the “calcemic / calcium mobilizing activity” value in test [1] is listed as “very low calcium mobilizing activity”. Besides, in test [3], the cell differentiation activity entry is on record as “high potency”.
Take `C=C1[C@H](O)CC(=C/C=C2\CCC[C@]3(C)[C@@H](CC)CC[C@@H]23)C[C@H]1O` [1α-Hydroxy-2-methylene-19-nor-pregnacalciferol]: the “calcemic / calcium mobilizing activity” value in test [1] is “little if any calcemic activity”. Moreover, the “binding activity” value in test [2] is recorded as “relatively high binding activity”. The cell differentiation activity entry in test [3] is “relatively high cell differentiation activity”.
For `C=C1[C@H](O)CC(=C/C=C2\CCC[C@]3(C)[C@@H]([C@@H](C)CCCCO)CC[C@@H]23)C[C@H]1O` [BM, 2-methylene-19,26,27-trinor-(20S)-1α,25-dihydroxyvitamin D3], in test [4], the “activity in inducing differentiation of HL-60 cells compared with 1α,25-dihydroxyvitamin D3” value is “only slightly less active; also recorded: about the same activity”. The intestinal calcium transport entry in test [5] was “do not elevate intestinal calcium transport”. Besides, in test [6], the “activity in binding to the vitamin D receptor compared with 1α,25-dihydroxyvitamin D3” value is given as “slightly less active”. In test [7], the “calcemic activity measured by bone calcium mobilization” value was “no calcemic activity”. Besides, the “activity in causing transcription compared with 1α,25-dihydroxyvitamin D3” value in test [8] is on record as “slightly less activity”.
Consider `CC(CCCCO)C1CCC2C(=CC=C3CC(O)C(C)C(O)C3)CCCC21C` [P10, 2α-methyl-19,26,27-trinor-(20S)-1α,25-dihydroxyvitamin D3], for which the “activity in inducing differentiation of HL-60 cells compared with 1α,25-dihydroxyvitamin D3” value in test [4] was “less activity”. Besides, the intestinal calcium transport result in test [5] is “do not elevate intestinal calcium transport”. The “activity in binding to the vitamin D receptor compared with 1α,25-dihydroxyvitamin D3” value in test [6] is listed as “slightly more active”. The “calcemic activity measured by bone calcium mobilization” value in test [7] is on record as “no calcemic activity”. Besides, the “activity in causing transcription compared with 1α,25-dihydroxyvitamin D3” value in test [8] is listed as “slightly less activity”.
In the same order, the values of `CC1[C@H](O)CC(=C/C=C2\CCC[C@]3(C)[C@@H]([C@@H](C)CCCCO)CC[C@@H]23)C[C@H]1O` (stereo partly drawn) [T-74, 2β-methyl-19,26,27-trinor-(20S)-1α,25-dihydroxyvitamin D3] are “significantly less activity”, “do not elevate intestinal calcium transport”, “significantly less active”, “no calcemic activity” and “significantly less activity”.
